Measurements from patent US8853246B2 (Dow AgroSciences LLC, priority 2009, dated 2014).

What was measured:
[1] = test system: Sweetpotato Whitefly-Crawler (Bemisia Tabaci); experiment: Insecticidal test for sweetpotato whitefly-crawler in foliar spray assay (col. BEMITA); format: in vivo; details: sweetpotato whitefly-crawler; for pest or weed control at 200 ppm: Bemisia tabaci, read-out: BEMITA 200 ppm (Corrected % Control, rating)
Summary of the method: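 Cotton plants (one 3-5 cm true leaf) infested with whitefly eggs (100-300/plant), held 5-6 days at 82° F, 50% RH until crawlers developed. Sprayed to runoff at 200 ppm (acetone stock diluted in 0.025% Tween 20), four plants per treatment. Live nymphs counted after 8-9 days; % control by Abbott's correction versus solvent check.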

[2] = test system: Green Peach Aphid (Myzus Persicae); experiment: Insecticidal test for green peach aphid in foliar spray assay (col. MYZUPE); format: in vivo; details: green peach aphid; for pest or weed control at 200 ppm: Myzus persicae, 72 h, read-out: MYZUPE 200 ppm (Corrected % Control, rating)
Summary of the method: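 Cabbage seedlings with 2-3 true leaves, infested with 20-50 wingless adult and nymph aphids one day earlier, sprayed to runoff at 200 ppm (acetone/methanol stock diluted in 0.025% Tween 20), four pots per treatment. After 3 days at ~25 °C, 40% RH, live aphids counted; corrected % control versus solvent-sprayed plants.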

Structure (SMILES)	pest or weed control at 200 ppm [1]	pest or weed control at 200 ppm [2]	BEMITA 200 ppm (Corrected % Control, rating) [1]	MYZUPE 200 ppm (Corrected % Control, rating) [2]
Cc1nc(-c2cccnc2)sc1N(C)C(=O)C1CCSC1 (centres unmarked) [Compound 206]	80 to 100%	80 to 100%		
Cc1nc(-c2cccnc2)sc1N1CCCC1=O [Compound 211]	80 to 100%	80 to 100%		
CSC(C)CC(=O)N(C)c1sc(-c2cncc(F)c2)nc1C (centres unmarked) [Compound 213]	80 to 100%	80 to 100%		
Cc1nc(-c2cncc(F)c2)sc1N(C)C(=O)C1CCSC1 (centres unmarked) [Compound 214]	80 to 100%	80 to 100%		
CSC(C)C(C)C(=O)N(C)c1sc(-c2cncc(F)c2)nc1C (centres unmarked) [Compound 215]	80 to 100%	80 to 100%		
CSCC(C)C(=O)N(Cc1ccccc1)c1sc(-c2cccnc2)nc1C (centres unmarked) [Compound 221]	< 80%	80 to 100%		
CSCC(C)C(=O)N(c1sc(-c2cccnc2)nc1C)C(C)C (centres unmarked) [Compound 222]	< 80%	80 to 100%		
CSCC(C)C(=O)N(CC(C)C)c1sc(-c2cccnc2)nc1C (centres unmarked) [Compound 223]	80 to 100%	80 to 100%		
C=CCSCC(C)C(=O)Nc1sc(-c2cccnc2)nc1C (centres unmarked) [Compound 224]	80 to 100%	80 to 100%		
CC(C)C(=O)N(C)c1sc(-c2cccnc2)nc1Cl [Compound 231]	80 to 100%	80 to 100%		
CCOC(=O)C(C)C(=O)N(C)c1sc(-c2cccnc2)nc1C (centres unmarked) [Compound 232]	80 to 100%	< 80%		
CCN(C(=O)CCSC)c1sc(-c2cccnc2)nc1C [Compound 236]	80 to 100%	80 to 100%		
CCN(C(=O)C(C)(C)CSC)c1sc(-c2cccnc2)nc1C [Compound 237]	80 to 100%	80 to 100%		
CCN(C(=O)CCS(C)(=O)=O)c1sc(-c2cccnc2)nc1C [Compound 239]			A (80-100)	A (80-100)
CN(C(=O)CCS(C)(=O)=O)c1sc(-c2cccnc2)nc1Cl [Compound 246]	80 to 100%	80 to 100%		
CSC(C)CC(=O)N(C)c1sc(-c2cccnc2)nc1Cl (centres unmarked) [Compound 248]	80 to 100%	80 to 100%		
COC(=O)CCC(=O)N(C)c1sc(-c2cccnc2)nc1C [Compound 252]	80 to 100%	80 to 100%		
CCN(C(=O)CC[S+](C)[O-])c1sc(-c2cncc(F)c2)nc1C (centres unmarked) [Compound 256]	80 to 100%	80 to 100%		
CCN(C(=O)CCS(C)(=O)=O)c1sc(-c2cncc(F)c2)nc1C [Compound 257]			A (80-100)	A (80-100)
CCN(C(=O)C(C)C[S+](C)[O-])c1sc(-c2cncc(F)c2)nc1C (centres unmarked) [Compound 258]	80 to 100%	80 to 100%		
CCN(C(=O)C(C)CS(C)(=O)=O)c1sc(-c2cncc(F)c2)nc1C (centres unmarked) [Compound 259]			A (80-100)	A (80-100)
CCN(C(=O)C(C)(C)C[S+](C)[O-])c1sc(-c2cncc(F)c2)nc1C (centres unmarked) [Compound 260]	80 to 100%	80 to 100%		
CCN(C(=O)C(C)(C)CS(C)(=O)=O)c1sc(-c2cncc(F)c2)nc1C [Compound 261]			A (80-100)	A (80-100)
CSCCC(=O)N(C)c1sc(-c2cncc(F)c2)nc1Cl [Compound 266]	80 to 100%	80 to 100%		
CCN(C(=O)OC(C)(C)C)c1sc(-c2cncc(F)c2)nc1Cl [Compound 267]	80 to 100%	80 to 100%		
